These results are taken from patent US9321764B2, “Dihydro-pyrrolopyridinone inhibitors” (AbbVie Inc., priority 2013, dated 2016).

SMILES strings stand for the structures. Marks after values point to notes of the source that are not given here.

Series [1] has as its target T1, BRD4 (BDI_K57-E168) (Homo sapiens, UniProt O60885).
T1 construct: BD1: amino acids K57-E168; made in house
Nature of the series: TR-FRET bromodomain binding assay, first bromodomain of BRD4. The note with it: His-tagged BD1, 100 nM Alexa647 probe; TR-FRET protocol A-E given per row. A digest of the protocol: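 His-tagged BRD4 BD1 (K57-E168), 8 nM, with 1 nM Eu-anti-His antibody and 100 nM Alexa647-labelled BET-inhibitor probe in pH 6.0 phosphate buffer, 2% DMSO. TR-FRET read after 1 h at room temperature. IC50 from 4-parameter fit, converted to Ki using probe Kd and concentration.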
On the technique in general: In TR-FRET formats the signal depends on donor and acceptor labels being close together.

Series [2] addresses T2, BRD4 (BDII_E352-M457) (Homo sapiens, UniProt O60885).
T2 construct: proliferation; Protocol; made in house
The series can be described thus: TR-FRET bromodomain binding assay, second bromodomain of BRD4. Conditions: His-tagged BD2, 30 nM Alexa647 probe; TR-FRET protocol A-E given per row. A digest of the protocol: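 His-tagged BRD4 BD2 ([…]) competed against an Alexa647-labelled BET-inhibitor probe in TR-FRET. Buffer was 20 mM sodium phosphate pH 6.0, 50 mM NaCl, 1 mM EDTA, 0.01% Triton X-100, 1 mM DTT, with method D DMSO series of 2.5 mM–800 nM (stock range). IC50 from 4-parameter fit, Ki from probe Kd and concentration.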

The test system of series [3] is breast cancer cell line MX-1. Nature of the series: MX-1 cell line proliferation assay. It is filed as cell-based. Conditions: Homo sapiens, MX1, 72 h, MX-1 cells, 3-day proliferation assay, Cell Titer Glo; read-out: Cellular proliferation EC50. A digest of the protocol:
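Cells seeded at 5000/well in RPMI 1640 with 10% FBS, allowed to adhere overnight at 37 °C, then exposed to compound at final 0.0001–3 μM for 3 days. Viability read by Cell Titer Glo luminescence, normalized to DMSO controls; EC50 from sigmoidal curve fit.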
In general terms: ATP-based viability assays read luminescence as a measure of living cells.

The test system of series [4] is LPS induced IL-6 production. The series can be described thus: LPS (lipopolysaccharide) induced IL-6 production mouse assay. It is filed as in vivo. The note with it: read-out: Inhibition of LPS induced IL-6 production, % inhibition at 3 mg/kg, 3 mg/kg oral, one hour before LPS 2.5 mg/kg i.p., serum IL-6 2 hours after LPS, SCID female mice, all p < 0.05. The protocol:
Compounds of the Examples listed in Table 2 were assayed for their ability to inhibit LPS (lipopolysaccharide) induced IL-6 (Interleukin-6) production in mice. Fox Chase SCID® female mice (Charles Rivers Labs, 5 per group) received an intraperitoneal challenge of lipopolysaccharide (2.5 mg/kg, L2630 E. coli 0111:B4) one hour after oral administration of compounds. Mice were euthanized 2 hours after lipopolysaccharide injection, blood was removed by cardiac puncture, and then the serum harvested from the blood samples was frozen at −80° C. On the day of the assay the serum samples were brought to room temperature and then diluted 1:20 in phosphate-buffered saline containing 2% bovine serum albumin. Interleukin-6 measurements were performed using a cytokine assay from Meso Scale Discovery (Gaithersburg, Md.) for mouse serum analysis according to the manufacturer's protocol and read on a SECTOR Imager 6000 (Meso Scale Discovery, Gaithersburg, Md.) instrument. Statistical analysis was performed using Prism software (version 5.0) incorporating Dunnett's one way ANOVA. The IL-6 mean and standard deviation of the group of vehicle treated animals were compared with the IL-6 mean and standard deviation of the group treated with drug. A p value <0.05 means that there is less than a 5% probability that the mean values in the two groups are equal.

Series [5] deals with OPM-2 xenograft tumors. The series can be described thus: Xenograft tumor growth inhibition assay (OPM-2). It is filed as in vivo, mice. Conditions: QDx21; for % TGI: OPM-2 xenograft, SCID-beige mice; for % removed from study: removed due to morbidity or weight loss in excess of 20%. The protocol: The effect of compounds of the examples to inhibit the growth of OPM-2 xenograft tumors implanted in mice was evaluated. A suspension of cancer cells (5×10^6 per 0.1 mL) prepared in RPMI culture medium (Invitrogen, Carlsbad, Calif.) was diluted 1:1 with a solution of Matrigel™ (BD Biosciences, Franklin Lakes, N.J.) and inoculated subcutaneously into the right hind flank of female SCID-beige (Charles River Labs) mice. Randomization into treatment and vehicle control groups (10/group) occurred when the mean tumor volume reached approximately 250 mm^3 Compounds were formulated in 10% EtOH, 30% PEG 400, 60% Phosol 53 MCT. Administration of compound or vehicle was initiated on the day following randomization and continued for 21 days.

As for `Cn1cc(-c2cc(NS(C)(=O)=O)c(F)cc2Oc2ccc(F)cc2F)c2cc[nH]c(=O)c21` [Example 11, N-[4-(2,4-difluorophenoxy)-2-fluoro-5-(1-methyl-7-oxo-6,7-dihydro-1H-pyrrolo[2,3-c]pyridin-3-yl)phenyl]methanesulfonamide], the figures for the Ki in series [1] and in series [2] were 8.9 nM and 31 nM, respectively. Moreover, in series [3], the EC50 was 37 nM. Besides, in series [4], the inhibition in vivo at 3 mg/kg was 66%.

With `Cn1cc(-c2cc(NS(C)(=O)=O)ccc2Oc2ccc(C#N)cc2)c2cc[nH]c(=O)c21` [Example 16, N-[4-(4-cyanophenoxy)-3-(1-methyl-7-oxo-6,7-dihydro-1H-pyrrolo[2,3-c]pyridin-3-yl)phenyl]methanesulfonamide], the Ki (commonly the dissociation constant of the complex between target and ligand, obtained from inhibition or displacement) was determined as 2.1 nM in series [1] and 27 nM in series [2]. Moreover, in series [3], the EC50 worked out at 59 nM. Besides, the inhibition in vivo at 3 mg/kg in series [4] is 69%.

For the compound `Cn1cc(-c2cc(S(C)(=O)=O)ccc2Oc2ccc(F)cc2F)c2cc[nH]c(=O)c21` [Example 17, 3-[2-(2,4-difluorophenoxy)-5-(methylsulfonyl)phenyl]-1-methyl-1,6-dihydro-7H-pyrrolo[2,3-c]pyridin-7-one], the values for the Ki in series [1] and in series [2] were 34 nM and 38 nM, respectively. The EC50 in series [3] stood at 107 nM. Besides, the inhibition in vivo at 3 mg/kg in series [4] was determined as 49%. The “% TGI” value is on record as 60*** % in series [5] (10 mg/kg PO) and 64*** % in series [5] (30 mg/kg PO). The “% removed from study” value in series [5] (10 mg/kg PO) and in series [5] (30 mg/kg PO) was 10% in each case.

For `Cn1cc(-c2cc(S(C)(=O)=O)ccc2OC2CCC(F)(F)CC2)c2cc[nH]c(=O)c21` [Example 25, 3-{2-[(4,4-difluorocyclohexyl)oxy]-5-(methylsulfonyl)phenyl}-1-methyl-1,6-dihydro-7H-pyrrolo[2,3-c]pyridin-7-one], the Ki in series [1] was 14 nM; in series [2] it was 60 nM. In series [3], the EC50 worked out at 80 nM. Besides, in series [4], the inhibition in vivo at 3 mg/kg came to 62%.

As to `Cn1cc(-c2cc(S(C)(=O)=O)ccc2OCCC2CC2)c2cc[nH]c(=O)c21` [Example 32, 3-[2-(2-cyclopropylethoxy)-5-(methylsulfonyl)phenyl]-1-methyl-1,6-dihydro-7H-pyrrolo[2,3-c]pyridin-7-one], the results for the Ki in series [1] and in series [2] were 6.1 nM and 11 nM, respectively. In addition, the EC50 in series [3] came to 127 nM. In addition, the inhibition in vivo at 3 mg/kg in series [4] worked out at 33%.

For the compound `Cn1cc(-c2cc(CS(C)(=O)=O)ccc2Oc2ccc(F)cc2F)c2cc[nH]c(=O)c21` [Example 52, 3-{2-(2,4-difluorophenoxy)-5-[(methylsulfonyl)methyl]phenyl}-1-methyl-1,6-dihydro-7H-pyrrolo[2,3-c]pyridin-7-one], the Ki in series [1] was 4.6 nM; in series [2] it was 7.1 nM. Moreover, the inhibition in vivo at 3 mg/kg in series [4] came out at 77%. The “% TGI” value in series [5] (1 mg/kg PO) amounted to 13%; in series [5] (3 mg/kg PO), 16%. For the same compound, the “% removed from study” value in series [5] (1 mg/kg PO) turned out to be 0%; in series [5] (3 mg/kg PO), 10%.

With `CCS(=O)(=O)Cc1ccc(Oc2ccc(F)cc2F)c(-c2cn(C)c3c(=O)[nH]ccc23)c1` [Example 53, 3-{2-(2,4-difluorophenoxy)-5-[(ethylsulfonyl)methyl]phenyl}-1-methyl-1,6-dihydro-7H-pyrrolo[2,3-c]pyridin-7-one], the Ki in series [1] amounted to 3.2 nM; in series [2], 6.6 nM. Also, the EC50 in series [3] stood at 39 nM. The inhibition in vivo at 3 mg/kg in series [4] is 74%.

Consider `Cn1cc(-c2cc(CS(C)(=O)=O)cnc2Oc2ccc(F)cc2F)c2cc[nH]c(=O)c21` [Example 60, 3-{2-(2,4-difluorophenoxy)-5-[(methylsulfonyl)methyl]pyridin-3-yl}-1-methyl-1,6-dihydro-7H-pyrrolo[2,3-c]pyridin-7-one], for which the Ki in series [1] is 16 nM; in series [2], 6.2 nM. The EC50 in series [3] was 37 nM. Moreover, in series [4], the inhibition in vivo at 3 mg/kg is 62%.

Turning to `Cn1cc(-c2cc(CS(C)(=O)=O)cc(C3CC3)c2Nc2ccc(F)cc2F)c2cc[nH]c(=O)c21` [Example 202, 3-{3-cyclopropyl-2-[(2,4-difluorophenyl)amino]-5-[(methylsulfonyl)methyl]phenyl}-1-methyl-1,6-dihydro-7H-pyrrolo[2,3-c]pyridin-7-one], the values for the Ki in series [1] and in series [2] were 5.82 nM and 16.3 nM, respectively. Also, the EC50 in series [3] was found to be 98.3 nM.

Take `Cn1cc(-c2cc(CS(C)(=O)=O)ccc2Nc2ccccn2)c2cc[nH]c(=O)c21` [Example 203, 1-methyl-3-{5-[(methylsulfonyl)methyl]-2-(pyridin-2-ylamino)phenyl}-1,6-dihydro-7H-pyrrolo[2,3-c]pyridin-7-one]: the Ki was found to be 13.8 nM in series [1] and 43.9 nM in series [2]. Moreover, the EC50 in series [3] was determined as 118 nM.
